# Experimental data reported in patent US20140107219A1, “LOCAL ANAESTHETIC” (VITA (EUROPE) LIMITED, priority 2011, published 2014).
# pIC50: −log10 of the molar value. Several values for one entry are separate records, joined by “and”; a condition that tells them apart may be missing. Identical values can stand only once. Like-named read-outs stand apart in the source and are kept apart here.
# How the values were obtained:
# [1] = biological target: T1, hNav1.2 sodium channels (SCN2A gene, expressed in CHO cells) (Homo sapiens, UniProt Q99250); test: Automated patch clamp (PatchXpress 7000A), cloned hNav1.2 in CHO cells, tonic and phasic; format: cell-based; details: for inhibition at 2000 µM: CHO
# T1 construct: expressed in transfected cells; host or cells: CHO cells
# Text: (§1) 1. Cloned hNav1.2 sodium channels (SCN2A gene, expressed in CHO cells). 2. Cloned hNav1.6 sodium channels (SCN8A gene, expressed in CHO cells).
# [2] = biological target: T2, hNav1.6 sodium channels (SCN8A gene, expressed in CHO cells) (Homo sapiens, UniProt Q9UQD0); test: Automated patch clamp (PatchXpress 7000A), cloned hNav1.6 in CHO cells, tonic and phasic; format: cell-based; details: for inhibition at 2000 µM: CHO; for pIC50: FIG. 42
# T2 construct: expressed in transfected cells; host or cells: CHO cells
# Method: In this example, the in vitro effects of 2-heptanone on the following ion channels were evaluated at room temperature using the PatchXpress 7000A (Molecular Devices), an automatic parallel patch clamp system:
# as §1
# The effects of 2-heptanone were evaluated at 0.73, 1.46, 2.19, and 2.92 mg/ml with each concentration tested in two cells (n=2). The duration of exposure to each concentration of 2-heptanone was 5 minutes. Tables 2 to 5 show the individual results from each concentration followed by individual concentration-response curves. The positive controls (Table 6) confirm the sensitivity of the test systems to inhibition.
# . Br. J. Pharmacol. 164, 719-730). […]
# gastrocnemius muscle = test: In vivo muscle CAP (mCAP, EMG integral) after intramuscular injection, gastrocnemius muscle; parameters: species or system rat; details: 10.8 mg/kg intramuscular
# [3] = tested on: isolated sciatic nerve of the rat; test: Evoked compound action potential (CAP) of the isolated rat sciatic nerve in a three-chamber bath (ex vivo): inhibition and recovery after washout; details: for IT100 / IT0: 1.41 mg/mL
# [4] = 2 mM (0.46 mg/mL), single cells
# T2 sequence (Q9UQD0 whole entry): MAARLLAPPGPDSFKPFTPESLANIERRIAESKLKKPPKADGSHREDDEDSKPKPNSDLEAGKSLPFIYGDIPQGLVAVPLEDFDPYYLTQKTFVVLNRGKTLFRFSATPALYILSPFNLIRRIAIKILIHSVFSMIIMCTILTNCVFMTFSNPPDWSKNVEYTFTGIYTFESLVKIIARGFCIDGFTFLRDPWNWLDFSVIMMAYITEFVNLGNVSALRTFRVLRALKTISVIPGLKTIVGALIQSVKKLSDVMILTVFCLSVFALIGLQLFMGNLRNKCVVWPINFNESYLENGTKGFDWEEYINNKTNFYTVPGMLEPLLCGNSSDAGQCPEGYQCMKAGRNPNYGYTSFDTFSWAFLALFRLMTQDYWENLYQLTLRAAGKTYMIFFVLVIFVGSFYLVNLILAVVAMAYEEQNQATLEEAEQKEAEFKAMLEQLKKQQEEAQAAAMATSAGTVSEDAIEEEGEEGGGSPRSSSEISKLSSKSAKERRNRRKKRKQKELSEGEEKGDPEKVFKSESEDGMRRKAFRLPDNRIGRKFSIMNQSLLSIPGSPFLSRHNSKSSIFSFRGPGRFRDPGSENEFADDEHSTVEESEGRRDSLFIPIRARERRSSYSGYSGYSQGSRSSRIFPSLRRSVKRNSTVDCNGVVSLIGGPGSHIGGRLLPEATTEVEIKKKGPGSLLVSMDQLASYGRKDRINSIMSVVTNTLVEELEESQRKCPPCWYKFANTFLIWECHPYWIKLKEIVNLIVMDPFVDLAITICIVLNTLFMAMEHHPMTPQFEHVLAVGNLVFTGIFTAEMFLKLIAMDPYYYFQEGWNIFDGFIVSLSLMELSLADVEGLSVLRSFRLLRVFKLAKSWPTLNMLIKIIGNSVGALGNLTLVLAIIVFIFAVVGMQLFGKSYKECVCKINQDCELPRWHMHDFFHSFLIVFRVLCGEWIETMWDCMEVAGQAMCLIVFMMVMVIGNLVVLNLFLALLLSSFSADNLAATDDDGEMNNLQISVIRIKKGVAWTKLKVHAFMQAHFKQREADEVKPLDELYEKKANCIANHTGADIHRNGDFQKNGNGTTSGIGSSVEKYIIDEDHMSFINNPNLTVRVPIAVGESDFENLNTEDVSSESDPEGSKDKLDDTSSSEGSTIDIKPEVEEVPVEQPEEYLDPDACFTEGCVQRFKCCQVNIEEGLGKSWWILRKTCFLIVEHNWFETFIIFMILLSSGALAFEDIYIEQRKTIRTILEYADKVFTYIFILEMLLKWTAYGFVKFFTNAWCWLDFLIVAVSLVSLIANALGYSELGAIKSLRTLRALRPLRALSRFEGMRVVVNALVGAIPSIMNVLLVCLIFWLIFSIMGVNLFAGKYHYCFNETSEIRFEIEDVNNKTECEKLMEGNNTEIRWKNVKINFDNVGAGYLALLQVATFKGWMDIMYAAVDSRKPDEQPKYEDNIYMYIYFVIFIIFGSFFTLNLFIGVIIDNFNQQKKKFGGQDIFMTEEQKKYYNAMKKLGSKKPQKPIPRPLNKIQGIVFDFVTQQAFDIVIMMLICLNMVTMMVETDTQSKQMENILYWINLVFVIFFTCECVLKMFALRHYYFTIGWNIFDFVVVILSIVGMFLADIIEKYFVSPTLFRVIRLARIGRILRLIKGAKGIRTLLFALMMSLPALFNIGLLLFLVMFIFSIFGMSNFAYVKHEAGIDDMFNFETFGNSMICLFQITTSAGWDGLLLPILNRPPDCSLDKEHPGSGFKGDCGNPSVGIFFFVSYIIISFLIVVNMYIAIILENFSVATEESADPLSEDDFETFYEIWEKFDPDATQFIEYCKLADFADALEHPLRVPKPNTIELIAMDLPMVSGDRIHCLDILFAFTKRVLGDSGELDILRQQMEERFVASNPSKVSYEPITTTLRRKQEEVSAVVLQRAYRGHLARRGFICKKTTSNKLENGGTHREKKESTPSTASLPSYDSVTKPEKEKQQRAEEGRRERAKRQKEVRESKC
# T1 sequence (Q99250 whole entry): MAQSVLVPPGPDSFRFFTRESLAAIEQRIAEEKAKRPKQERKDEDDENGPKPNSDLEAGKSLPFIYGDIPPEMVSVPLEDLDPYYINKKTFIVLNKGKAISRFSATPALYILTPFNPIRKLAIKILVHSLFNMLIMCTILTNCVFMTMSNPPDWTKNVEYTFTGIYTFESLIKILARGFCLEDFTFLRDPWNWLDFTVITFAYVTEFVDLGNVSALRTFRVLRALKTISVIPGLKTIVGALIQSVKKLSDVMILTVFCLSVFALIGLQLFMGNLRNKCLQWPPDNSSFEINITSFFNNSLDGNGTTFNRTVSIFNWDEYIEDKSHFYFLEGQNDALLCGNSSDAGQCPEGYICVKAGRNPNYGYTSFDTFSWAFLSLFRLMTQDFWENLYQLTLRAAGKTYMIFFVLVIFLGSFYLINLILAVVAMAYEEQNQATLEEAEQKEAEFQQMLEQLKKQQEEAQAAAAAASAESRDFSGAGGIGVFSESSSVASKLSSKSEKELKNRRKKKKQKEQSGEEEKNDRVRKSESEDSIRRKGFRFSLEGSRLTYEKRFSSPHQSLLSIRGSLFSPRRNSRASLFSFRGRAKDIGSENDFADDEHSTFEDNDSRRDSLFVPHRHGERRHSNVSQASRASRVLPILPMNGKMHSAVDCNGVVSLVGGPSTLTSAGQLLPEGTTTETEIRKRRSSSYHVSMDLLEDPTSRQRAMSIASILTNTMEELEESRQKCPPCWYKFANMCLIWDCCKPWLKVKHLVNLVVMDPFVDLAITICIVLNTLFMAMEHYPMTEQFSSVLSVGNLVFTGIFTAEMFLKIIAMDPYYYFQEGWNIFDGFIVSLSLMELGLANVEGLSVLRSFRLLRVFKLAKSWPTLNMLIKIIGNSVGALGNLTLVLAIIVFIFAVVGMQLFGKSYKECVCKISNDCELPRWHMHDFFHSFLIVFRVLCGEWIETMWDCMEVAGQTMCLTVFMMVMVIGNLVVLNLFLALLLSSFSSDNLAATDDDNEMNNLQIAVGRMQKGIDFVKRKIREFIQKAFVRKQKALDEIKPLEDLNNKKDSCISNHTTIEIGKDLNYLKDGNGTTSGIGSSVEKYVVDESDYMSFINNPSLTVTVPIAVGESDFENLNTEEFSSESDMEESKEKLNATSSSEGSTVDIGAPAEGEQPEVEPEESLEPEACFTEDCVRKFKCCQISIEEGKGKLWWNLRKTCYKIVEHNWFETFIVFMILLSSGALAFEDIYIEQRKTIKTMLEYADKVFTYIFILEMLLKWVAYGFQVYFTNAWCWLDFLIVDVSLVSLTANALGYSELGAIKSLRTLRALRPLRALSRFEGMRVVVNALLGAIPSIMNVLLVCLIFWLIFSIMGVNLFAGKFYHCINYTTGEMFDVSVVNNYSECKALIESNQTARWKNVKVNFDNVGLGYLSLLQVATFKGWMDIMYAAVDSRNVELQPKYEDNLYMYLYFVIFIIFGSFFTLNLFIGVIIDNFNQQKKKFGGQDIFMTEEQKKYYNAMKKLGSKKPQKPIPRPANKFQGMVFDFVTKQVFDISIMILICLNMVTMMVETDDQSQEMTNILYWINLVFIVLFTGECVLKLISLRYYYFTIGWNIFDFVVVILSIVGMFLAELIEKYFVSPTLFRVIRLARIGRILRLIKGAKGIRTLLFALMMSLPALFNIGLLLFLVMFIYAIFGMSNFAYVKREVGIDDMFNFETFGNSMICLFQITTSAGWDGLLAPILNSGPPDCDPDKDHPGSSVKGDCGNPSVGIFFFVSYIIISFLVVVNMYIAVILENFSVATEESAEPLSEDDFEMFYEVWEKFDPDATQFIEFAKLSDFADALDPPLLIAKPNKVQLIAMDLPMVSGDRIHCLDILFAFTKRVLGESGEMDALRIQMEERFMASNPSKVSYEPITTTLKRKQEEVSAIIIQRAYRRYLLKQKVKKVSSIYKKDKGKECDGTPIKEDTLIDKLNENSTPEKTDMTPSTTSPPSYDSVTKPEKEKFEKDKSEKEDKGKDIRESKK
compound,measurement,setting,value
"CCN(CC)CC(=O)Nc1c(C)cccc1C [lidocaine, 2-(diethylamino)-N-(2,6-dimethylphenyl)-acetamide, reference compound]","Individual Data Points (% Inhibition), Nav1.2 (positive control)",[1]; [4],74.9%
same,inhibition at 2000 µM,"[1]; read-out: Individual Data Points (% Inhibition), Nav1.2 (positive control), 2 mM (0.46 mg/mL), single cells",76.1%
same,inhibition at 2000 µM,"[1]; read-out: Mean % Inhibition of Nav1.2 (positive control), 2 mM (0.46 mg/mL)",75.5%
same,"Individual Data Points (% Inhibition), Nav1.6 (positive control)",[2]; [4],59.3%
same,inhibition at 2000 µM,"[2]; read-out: Individual Data Points (% Inhibition), Nav1.6 (positive control), 2 mM (0.46 mg/mL), single cells",63.8%
same,inhibition at 2000 µM,"[2]; read-out: Mean % Inhibition of Nav1.6 (positive control), 2 mM (0.46 mg/mL)",61.5%
same,"hNav1.6 IC50, phasic","[2]; Example 18, mean ± SEM",0.07 ± 0.01 mg/mL
same,"hNav1.6 IC50, tonic","[2]; Example 18, mean ± SEM",0.29 ± 0.01 mg/mL
same,pIC50,"[2]; read-out: Nav1.6 IC50, phasic",3.59
same,pIC50,"[2]; read-out: Nav1.6 IC50, tonic",2.96
same,IT50 of the integral of mCAPs,gastrocnemius muscle,19.30 ± 1.92 s
same,"recovery of mCAP, % of initial values after 3 h",gastrocnemius muscle,70.3±8.67% and 70.3%
same,IT100 / IT0,[3],320 ± 14.96 s
same,IT100 / IT0,[3]; listed as Lidocaine,320.3 ± 14.96 s
same,IT0,"[3]; 10 mM, stirred saline, individual nerves",90 s and 150 s
same,IT50 (time to inhibit CAP amplitude to 50% of control),[3]; 10 mg/mL,12.0 ± 0.95 s
same,"recovery of the CAP after washout, % of control",[3]; after 1.41 mg/mL,95%
same,IC50 (concentration required to inhibit the CAP to 50% of control),"[3]; estimated from time-response curves, GraphPad Prism 5",0.337 ± 0.001 mg/mL
